pIC50: −log10 of the molar value.
Key:
[1] = Selectivity index, ratio of IC50 for human MRC5 cells to IC50 for human U87MG cells; assay type: toxicity; settings: MRC5 cells and U87MG cells, read-out: Ratio IC50
[2] = Selectivity index, ratio of IC50 for human MRC5 cells to IC50 for human U118MG cells; assay type: toxicity; settings: MRC5 cells and U118MG cells, read-out: Ratio IC50
[3] = tested on: MRC5; assay: Cytostatic activity against human MRC5 cells assessed as reduction in cell viability after 48 hrs by MTT assay; assay type: functional, cell-based; settings: MRC5, 48 h
[4] = tested on: U-118-MG; assay: Cytostatic activity against human U118MG cells assessed as reduction in cell viability after 48 hrs by MTT assay; assay type: functional, cell-based
[5] = Half life in RPMI/FBS cell culture media 9:1 (v/v) at 2 mM by HPLC analysis; assay type: physicochemical; settings: cattle
[6] = tested on: U-87 MG; assay: Cytostatic activity against human U87MG cells assessed as reduction in cell viability after 48 hrs by MTT assay; assay type: functional, cell-based, U-87MG ATCC
[7] = tested on: T98G; assay: Cytostatic activity against human T98G cells assessed as reduction in cell viability after 48 hrs by MTT assay; assay type: functional, cell-based
[8] = tested on: T47D; assay: Cytostatic activity against human T47D cells assessed as reduction in cell viability after 48 hrs by MTT assay; assay type: functional, cell-based
[9] = Stability in RPMI cell culture media at 2 mM by HPLC analysis; assay type: physicochemical; settings: 2000 µM
[10] = Selectivity index, ratio of IC50 for human MRC5 cells to IC50 for human T98G cells; assay type: toxicity; settings: MRC5 cells and T98G cells, read-out: Ratio IC50
[11] = tested on: HeLa; assay: Cytostatic activity against human HeLa cells assessed as reduction in cell viability after 48 hrs by MTT assay; assay type: functional, cell-based
[12] = tested on: Caco-2; assay: Cytostatic activity against human Caco2 cells assessed as reduction in cell viability after 48 hrs by MTT assay; assay type: functional, cell-based; settings: Caco-2, 48 h
[13] = Half life in human serum at 2 mM by HPLC analysis; assay type: ADME, cell-free
[14] = Half life in RPMI/FBS cell culture media 9:1 (v/v) assessed as cumulative concentration of metabolites of known anticancer activity at 2 mM by HPLC analysis; assay type: ADME; settings: 2000 µM

Row | Structure (SMILES) | selectivity ratio [1] | selectivity ratio [2] | pIC50 [3] | pIC50 [4] | half-life at 2000 µM [5] | pIC50 [6] | pIC50 [7] | pIC50 [8] | Stability [9] | selectivity ratio [10] | pIC50 [11] | pIC50 [12] | half-life at 2000 µM [13] | t1/2 [14]
1 | O=C(O[C@H]1C[C@H](n2cc(F)c(=O)[nH]c2=O)O[C@@H]1COP(=O)(O)Oc1ccc2ncccc2c1)c1ccccc1 | 1 | 2 | 5.89 | 6.10 | 7.7 h | 6.06 | 5.89 | 5.15 | Stable | 1 | 5.14 | 5.61 | 16.5 h | –
2 | O=C(O[C@H]1C[C@H](n2cc(F)c(=O)[nH]c2=O)O[C@@H]1COP(=O)(O)Oc1ccccc1)c1ccccc1 | 2 | 1 | 5.90 | 6.01 | 6.6 h | 6.10 | 6.09 | 5.16 | Stable | 2 | 5.23 | 5.99 | 5.1 h | –
3 | O=c1[nH]c(=O)n([C@H]2C[C@H](O)[C@@H](COP(=O)(O)Oc3ccc4ncccc4c3)O2)cc1F | < 1 | < 1 | 5.89 | 5.15 | 26 h | 4.97 | 5.72 | 5.09 | Stable | < 1 | 5.14 | 5.85 | 26.2 h | –
4 | O=c1[nH]c(=O)n([C@H]2C[C@H](O)[C@@H](COP(=O)(O)Oc3ccccc3)O2)cc1F | 1 | 3 | 4.44 | 4.84 | 28 h | 4.47 | 4.49 | 4.87 | Stable | 1 | 4.82 | 4.58 | 52.3 h | –
5 | CCCCCCCCCC[n+]1cccc(OP(=O)([O-])OC[C@H]2O[C@@H](n3cc(F)c(=O)[nH]c3=O)C[C@@H]2OC(=O)c2ccccc2)c1 | 21 | 44 | 4.85 | 6.49 | 16.5 h | 6.17 | 6.40 | 5.06 | Stable | 35 | 5.92 | 4.89 | 8.3 h | –
6 | C[N+]1(C)CCC(OP(=O)([O-])OC[C@H]2O[C@@H](n3cc(F)c(=O)[nH]c3=O)C[C@@H]2OC(=O)c2ccccc2)CC1 | 7 | 2 | 5.08 | 5.35 | > 120 h | 5.89 | 5.17 | 4.93 | Stable | 1 | 4.57 | 4.80 | > 120 h | –
7 | CCCCCCCCCc1ccc(OP(=O)(O)OC[C@H]2O[C@@H](n3cc(F)c(=O)[nH]c3=O)C[C@@H]2OC(=O)c2ccccc2)cc1 | 6 | 4 | 4.40 | 4.96 | > 120 h | 5.17 | 5.17 | 4.57 | Stable | 6 | 4.40 | 4.69 | > 120 h | –
8 | CCOC(=O)C[n+]1cccc(OP(=O)([O-])OC[C@H]2O[C@@H](n3cc(F)c(=O)[nH]c3=O)C[C@@H]2OC(=O)c2ccccc2)c1 | 15 | 6 | 5.07 | 5.81 | 1.1 h | 6.24 | 5.80 | 4.90 | Stable | 5 | 5.21 | 5.58 | 1.4 h | 8.6 h
9 | CCCCCCCCCC[n+]1cccc(O)c1 | – | – | 3.90 | 3.90 | – | 3.80 | 4.25 | – | – | – | – | – | – | –
10 | CCOC(=O)C[n+]1cccc2cc(OP(=O)([O-])OC[C@H]3O[C@@H](n4cc(F)c(=O)[nH]c4=O)C[C@@H]3OC(=O)c3ccccc3)ccc21 | 66 | 46 | 4.46 | 6.12 | 2 h | 6.28 | 4.89 | 4.67 | Stable | 3 | 6.22 | 4.54 | 5.9 h | 15.6 h
11 | C[N+](C)(CCOP(=O)([O-])OC[C@H]1O[C@@H](n2cc(F)c(=O)[nH]c2=O)C[C@@H]1OC(=O)c1ccccc1)Cc1ccccc1 | 1 | < 1 | 6.22 | 5.43 | 54 h | 6.21 | 5.70 | 4.48 | Stable | < 1 | 5.82 | 4.93 | 96.3 h | –
12 | CCOC(=O)C[n+]1cccc2cc(O)ccc21 | – | – | 3.79 | < 3.70 | – | < 3.70 | < 3.70 | – | – | – | – | – | – | –
13 | C[n+]1cccc(OP(=O)([O-])OC[C@H]2O[C@@H](n3cc(F)c(=O)[nH]c3=O)C[C@@H]2OC(=O)c2ccccc2)c1 | 10 | 2 | 5.24 | 5.50 | 14.8 h | 6.23 | 5.46 | 5.41 | Stable | 2 | 5.90 | 5.86 | 37.3 h | –
14 | C[N+](C)(C)CCOP(=O)([O-])OC[C@H]1O[C@@H](n2cc(F)c(=O)[nH]c2=O)C[C@@H]1OC(=O)c1ccccc1 | < 1 | < 1 | 5.89 | 5.12 | 20 h | 5.75 | 4.61 | 4.40 | Stable | < 1 | 5.44 | 5.09 | 116 h | –
15 | CCOC(=O)C[n+]1cccc(O)c1 | – | – | < 3.70 | < 3.70 | – | < 3.70 | < 3.70 | – | – | – | – | – | – | –
16 | C[N+]1(Cc2ccccc2)C2CCC1CC(OP(=O)([O-])OC[C@H]1O[C@@H](n3cc(F)c(=O)[nH]c3=O)C[C@@H]1OC(=O)c1ccccc1)C2 (stereo not given in full) | 2 | 1 | 4.20 | 4.18 | > 120 h | 4.44 | 4.30 | < 4.10 | Stable | 1 | < 4.10 | < 4.10 | > 120 h | –
17 | O=c1[nH]c(=O)n([C@H]2C[C@H](O)[C@@H](COP(=O)(O)Oc3cccnc3)O2)cc1F | < 1 | < 1 | 5.07 | 4.56 | 16.7 h | 4.40 | 5.92 | 5.03 | Stable | 7 | 6.15 | 5.47 | 19.9 h | –
18 | Oc1ccc[n+](Cc2ccccc2)c1 | – | – | < 3.70 | < 3.70 | – | < 3.70 | < 3.70 | – | – | – | – | – | – | –
19 | Oc1cccnc1 | – | – | < 3.30 | < 3.30 | – | < 3.30 | < 3.30 | – | – | – | – | – | – | –
20 | O=C(O[C@H]1C[C@H](n2cc(F)c(=O)[nH]c2=O)O[C@@H]1COP(=O)([O-])Oc1ccc[n+](Cc2ccccc2)c1)c1ccccc1 | 58 | 26 | 4.41 | 5.83 | 10.8 h | 6.18 | 5.59 | 5.46 | Stable | 15 | 6.28 | 6.37 | 14.4 h | –
21 | O=C(O[C@H]1C[C@H](n2cc(F)c(=O)[nH]c2=O)O[C@@H]1COP(=O)(O)Oc1cccnc1)c1ccccc1 | 22 | 17 | 4.81 | 6.04 | 6.7 h | 6.15 | 5.89 | 4.84 | Stable | 12 | 5.16 | 5.60 | 17.8 h | –
